One experiment has as its system pS6K1 in MCF-7 cells. The experiment is described as follows: Insulin-stimulated mTORC1 signaling Western blot in MCF-7 cells. It is filed as cell-based, human. To be noted: MCF-7, 10 µM NR1. The source says:
We next evaluated the activity of NR1 in cell culture. Selective inhibition of mTORC1 in cells produces a specific signaling signature characterized by a reduction in phosphorylation of the mTORC1 substrates S6K1 and 4E-BP1 and increase in phosphorylation of AKT, catalyzed by mTORC2. This distinctive profile reflects the relief of a feedback loop where active S6K1 directly phosphorylates IRS1, resulting in the degradation of IRS1 and subsequent reduction of growth factor signaling from RTKs to downstream effectors such as AKT[1]. Conversely, reduction in ^T389pS6K1 is expected to lead to an increase in ^S473pAKT levels. We used AlphaLISA assays to detect ^T389pS6K1 and ^S473pAKT in MCF-7 cells. During the development of the assays, we noticed that ^T389pS6K1 was more responsive to our compound series than ^T37/46p4E-BP1, which may be due to differences in mTORC1 substrate classes in a cellular setting. […]
MCF-7 cells were serum-starved for 16 h and treated with compound for 90 min before cell lysis and Western blot analysis. […] For EGF-stimulated cells, 100 ng mL^−1 EGF was added 10 min before cell lysis. c Rap1 activity was detected in lysates loaded in vitro with either GDP or GTPγS and treated with NR1 at the indicated concentrations. […] Bound Rap1 was detected by Western blot. d Evaluation of NR1 in a LAM patient-derived cell line (TRI102) under replete and serum-starved conditions. […]
For orientation: A western blot detects proteins with antibodies after separation by electrophoresis.

Experiment [1] has as its target T1, Rheb-dependent mTORC1 kinase activity (Homo sapiens, UniProt Q15382).
T1 construct: using full-length Rheb and mTORC1 purified from mammalian cells via a Flag-Raptor handle; made in house; host or cells: HA-GST-Rheb: Freestyle 293-F cells transfected with pRK5-HA-GST-Rheb; mTORC1: HEK-293E cells stably expressing FLAG-Raptor
The experiment is described as follows: Rheb-dependent mTORC1 in vitro kinase assay (Rheb-IVK). The experiment is classed as biochemical.

Each structure is given as a SMILES string. pIC50: −log10 of the molar value.

Broadly, the pIC50 is the negative decadic logarithm of the IC50, by convention in mol/L.

T1 sequence (Q15382 1-181 limits assumed): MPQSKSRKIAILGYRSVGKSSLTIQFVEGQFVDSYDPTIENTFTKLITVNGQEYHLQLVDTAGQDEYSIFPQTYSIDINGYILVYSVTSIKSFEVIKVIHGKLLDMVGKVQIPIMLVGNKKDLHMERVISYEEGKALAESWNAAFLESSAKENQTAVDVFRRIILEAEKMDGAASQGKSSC

As to `CN(C)C(=O)c1ccc(Cn2c(C(=O)O)cc3c(Br)cc(Sc4ccc(Cl)c(Cl)c4)cc32)cc1` [NR1, 4-bromo-6-(3,4-dichlorophenylthio)-1-(4-(dimethylcarbamoyl)benzyl)-1H-indole-2-carboxylic acid], in the experiment on pS6K1 in MCF-7 cells, the “S6K1 phosphorylation compared with rapamycin” value is “does not inhibit S6K1 phosphorylation as well as 100 nM rapamycin”. Also, the pIC50 in experiment [1] was 5.68.
